Laboratory results published in patent US11053226B2, “KRAS G12C inhibitors and methods of using the same” (Amgen Inc., priority 2018, dated 2021).
Like-named read-outs stand apart in the source and are kept apart here.

Molecular target: GDP-bound KRAS protein (aa 1-169), containing both G12C and C118A amino acid substitutions (Homo sapiens (Human), UniProt P01116, C118A/G12C)
Assay: Coupled Nucleotide Exchange Assay
Assay type: biochemical
Description: For compounds in Table 9, the following assay conditions were employed:
Coupled Nucleotide Exchange Assay:
The assay plates were then read on a PerkinElmer EnVision Multilabel Reader, using AlphaScreen® technology, and data were analyzed using a 4-parameter logistic model to calculate IC50 values.

[1] = first Coupled Exchange column, compound pre-incubation probably 5 min (rest of head not shown; b435 lists 5 min, 2 hours or 20 hours), read-out: Coupled Exchange IC50
[2] = third Coupled Exchange column, compound pre-incubation probably 20 hours (rest of head not shown; b435 lists 5 min, 2 hours or 20 hours), read-out: Coupled Exchange IC50
[3] = read-out: Coupled Exchange IC50 (2 h), 2 h compound pre-incubation
[4] = read-out: Coupled Exchange IC50 (20 h), 20 h compound pre-incubation
[5] = second Coupled Exchange column, read-out: Coupled Exchange IC50
[6] = read-out: Coupled Exchange IC50 (5 min), 5 min compound pre-incubation

Chain of GDP-bound KRAS protein (aa 1-169), containing both G12C and C118A amino acid substitutions (P01116 other isoform, or with tags, fused parts or gaps G12C/C118A): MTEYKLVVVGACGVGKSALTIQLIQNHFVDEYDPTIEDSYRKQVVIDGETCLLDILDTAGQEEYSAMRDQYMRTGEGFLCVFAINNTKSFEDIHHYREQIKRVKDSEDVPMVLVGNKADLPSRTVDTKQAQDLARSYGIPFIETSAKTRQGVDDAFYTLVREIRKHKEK

Row | Compound | IC50 [1] [µM] | IC50 [3] [µM] | IC50 [4] [µM] | further results
1 | C=CC(=O)N1CC(NC(=O)Cn2c(C)cc3cc(Br)ccc32)C1 [Example 347] | > 250 |  |  | IC50 [2]: 1.47 µM
2 | C=CC(=O)N1CC(NC(=O)Cn2c3ccc(Br)cc3c3cc(Br)ccc32)C1 [Example 193] |  | > 250 | 0.39 | 
3 | C=CC(=O)N1CC(NC(=O)Cn2cc(C(=O)C(=O)OCC)c3ccccc32)C1 [Example 200] |  | > 250 | > 250 | 
4 | C=CC(=O)N1CC(NC(=O)Cn2c(C)c(-c3ccccc3Cc3ccccc3)c3cc(Cl)cc(C)c32)C1 [Example 336] | 2.11 |  |  | 
5 | C=CC(=O)N1CC(NC(=O)Cn2c(-c3ncccn3)cc3cc(Cl)ccc32)C1 [Example 196] |  | 45.6 | 6.09 | 
6 | C=CC(=O)N1CC(NC(=O)Cn2ccc3cc(C#N)ccc32)C1 [Example 191] |  | > 250 | > 250 | 
7 | C=CC(=O)N1CC(N(C)C(=O)Cn2c3ccccc3c3cc(Br)ccc32)C1 [Example 261] |  | 15.4 | 2.17 | 
8 | C=CC(=O)N1CC(C)(N(C)C(=O)Cn2ccc3cc(Br)ccc32)C1 [Example 356] | > 250 |  |  | IC50 [2]: > 31.3 µM
9 | C=CC(=O)N1CC(NC(=O)Cn2cc(-c3cccnc3)c3cc(-c4cccnc4)ccc32)C1 [Example 207] |  | 164 | 18.2 | 
10 | C=CC(=O)N1CC(NC(=O)Cn2c(C)c(-c3cccnc3N3CCC(C)CC3)c3cc(Cl)cc(C)c32)C1 [Example 344] | 0.88 |  |  | 
11 | C=CC(=O)N1CC(NC(=O)Cn2c3ccccc3c3ccccc32)C1 [Example 195] |  | > 250 | 33.5 | 
12 | C=CC(=O)N1CC(N(C)C(=O)Cn2c(C)c(-c3cnccc3C3=CCCCC3)c3cc(Cl)cc(C)c32)C1 [Example 337] | 2.02 |  |  | 
13 | C=CC(=O)N1CC(NC(=O)Cn2c(C3CC3)c(-c3cnccc3C(C)C)c3cc(Cl)cc(C)c32)C1 [Example 324] | 2.42 |  |  | 
14 | C=CC(=O)N1CC(NC(=O)Cn2ccc3cc(Cl)c(Cl)cc32)C1 [Example 258] |  | 104 | 5.22 | 
15 | C=CC(=O)N1CC(NC(=O)Cn2c3c(c4cc(Br)ccc42)CCN(C(C)=O)C3)C1 [Example 252] |  | 19.4 | 2.49 | 
16 | C=CC(=O)N1CC(NC(=O)Cn2cc(CC(=O)N3CC4CCC3C4)c3cc(Br)ccc32)C1 (stereo not drawn) [Example 333] | 80.1 |  |  | 
17 | C=CC(=O)N1CC(NC(=O)Cn2c(C)c(-c3cncnc3C3CCCCC3)c3cc(Cl)cc(C)c32)C1 [Example 342] | 0.66 |  |  | 
18 | C=CC(=O)N1CC(C)(NC(=O)Cn2ccc3cc(Br)ccc32)C1 [Example 352] | > 250 |  |  | IC50 [2]: 25 µM
19 | C=CC(=O)N1CC(NC(=O)Cn2cc(-c3c(C)ccc4cn[nH]c34)c3cc(-c4c(C)ccc5cn[nH]c45)ccc32)C1 [Example 205] |  | 80.5 | 11.4 | 
20 | C=CC(=O)N1CC(NC(=O)Cn2cc(-c3cc[nH]n3)c3ccc(-c4ccccc4Cl)cc32)C1 [Example 229] |  | 18.9 | 5.4 | 
21 | C=CC(=O)N1CC(NC(=O)Cn2cc(-c3cccnc3)c3cc(Br)ccc32)C1 [Example 206] |  | 14.1 | 2.84 | 
22 | C=CC(=O)N1C[C@@H](NC(=O)Cn2ccc3cc(Br)ccc32)[C@H]1C [Example 362] | > 250 |  |  | IC50 [2]: > 250 µM

Row | Compound | IC50 [1] [µM] | IC50 [3] [µM] | IC50 [4] [µM] | further results
23 | C=CC(=O)N1CC(NC(=O)Cn2c3c(c4cc(Br)ccc42)C=NCC3)C1 [Example 238] |  | 73.1 | 9.89 | 
24 | C=CC(=O)N1CC(NC(=O)Cn2ccc3cc(I)ccc32)C1 [Example 188] |  | 22.2 | 3.71 | 
25 | C=CC(=O)N1CC(NC(=O)Cn2c(C(=O)NCCc3ccccc3)cc3cc(Br)ccc32)C1 [Example 189] |  | 15.6 | 1.62 | 
26 | C=CC(=O)N1CC(NC(=O)Cn2ccc3cc(C4CC4)ccc32)C1 [Example 217] |  | > 250 | > 125 | 
27 | C=CC(=O)N1CC(NC(=O)Cn2c3c(c4cc(Br)ccc42)CCCC3=O)C1 [Example 262] |  | > 250 | 3.31 | 
28 | C=CC(=O)N1CC(NC(=O)Cn2c3ccccc3c3ccc(Cl)nc32)C1 [Example 280] |  |  |  | IC50 [5]: > 250 µM; IC50 [2]: > 62.5 µM
29 | C=CC(=O)N1CC(NC(=O)Cn2cc(CC(=O)N3CCc4ccc(C(=O)O)cc4C3)c3cc(Br)ccc32)C1 [Example 330] | 36.6 |  |  | 
30 | C=CC(=O)N1CC(NC(=O)Cn2cc(-c3c(F)ccc4cn[nH]c34)c3cc(-c4c(F)ccc5cn[nH]c45)ccc32)C1 [Example 208] |  | 20.5 | 13 | 
31 | C=CC(=O)N1CC(NC(=O)Cn2cc(Cc3ccccc3)c3ccccc32)C1 [Example 213] |  | 31.1 | 5.09 | 
32 | C=CC(=O)N1CC(NC(=O)Cn2ccc3cc(OC)ccc32)C1 [Example 236] |  | > 250 | > 250 | 
33 | C=CC(=O)N1CC(NC(=O)Cn2ccc3cc(Br)ccc32)C1 [Example 180] |  | > 250 | 5.5 | IC50 [6]: 201 µM
34 | C=CC(=O)N1CC(N(C)C(=O)Cn2ccc3cc(Br)cc(C)c32)C1 [Example 351] | > 250 |  |  | IC50 [2]: 3.32 µM
35 | C=CC(=O)N1CC(NC(=O)Cn2c3c(c4cc(Br)ccc42)CCNC3)C1 [Example 250] |  | 89.4 | 5.69 | 
36 | C=CC(=O)N1CC(NC(=O)Cn2ccc3cc(SC)ccc32)C1 [Example 266] |  | > 250 | > 62.5 | 
37 | C=CC(=O)N1CC(NC(=O)Cn2ccc3cc(Br)ccc32)C1C (stereo not drawn) [Example 361] | 231 |  |  | IC50 [2]: 3.04 µM
38 | C=CC(=O)N1CC(NC(=O)Cn2ccc3cc(Br)cc(C)c32)C1 [Example 190] |  | 16 | 1.76 | IC50 [6]: 193 µM
39 | C=CC(=O)N1CC(NC(=O)Cn2c(C)c(CN3CCN(c4ccc(C#N)cn4)CC3)c3cc(Br)ccc32)C1 [Example 315] |  |  |  | IC50 [5]: 6.22 µM
40 | C=CC(=O)N1CC(N(C)C(=O)Cn2cc(C)c3cc(Br)ccc32)C1 [Example 355] | 155 |  |  | IC50 [2]: 1.7 µM
41 | C=CC(=O)N1CC(N(C)C(=O)Cn2ccc3cc(Br)ccc32)C1 [Example 346] | > 250 |  |  | IC50 [2]: 2.73 µM
42 | C=CC(=O)N1CC(NC(=O)Cn2cc(CC(=O)N3CCc4cn[nH]c4C3)c3cc(Br)ccc32)C1 [Example 332] | 43.3 |  |  | 
43 | C=CC(=O)N1CC(NC(=O)Cn2cc(C#N)c3cc(Br)ccc32)C1 [Example 211] |  | 22.9 | 5.2 | 
44 | C=CC(=O)N1CC(NC(=O)Cn2cc(I)c3cc(C(F)(F)F)ccc32)C1 [Example 257] |  | 9.12 | 0.97 | IC50 [6]: 64.7 µM

Row | Compound | IC50 [1] [µM] | IC50 [3] [µM] | IC50 [4] [µM] | further results
45 | C=CC(=O)N1CC(NC(=O)Cn2cc(CC(=O)N3CCOC4CC(N(C)C)CCC43)c3cc(Br)ccc32)C1 (stereo not drawn) [Example 329] | 85.8 |  |  | 
46 | C=CC(=O)N1CC(NC(=O)Cn2c(C(=O)OC)cc3cc(Br)ccc32)C1 [Example 181] |  | > 250 | 6.47 | 
47 | C=CC(=O)N1CC(NC(=O)Cn2c(-c3ccccc3)cc3cc(Br)ccc32)C1 [Example 243] |  | 18.2 | 2.82 | 
48 | C=CC(=O)N1CC(NC(=O)Cn2cc([N+](=O)[O-])c3cc(Cl)ccc32)C1 [Example 240] |  | 13.1 | 1.33 | 
49 | C=CC(=O)N1CC(NC(=O)Cn2c(C(=O)NCc3ccc(C(=O)O)s3)cc3cc(Br)ccc32)C1 [Example 225] |  | > 250 | 19.8 | 
50 | C=CC(=O)N1CC(NC(=O)Cn2ccc3cc(Br)cc(F)c32)C1 [Example 267] |  | 15.5 | 2.25 | 
51 | C=CC(=O)N1CC(NC(=O)Cn2cc(-c3ccccc3OC)c3cc(-c4ccccc4OC)ccc32)C1 [Example 209] |  | 14.1 | 3.01 | 
52 | C=CC(=O)N1CC(NC(=O)Cn2c(C)c(-c3cnccc3C(C)C)c3cc(Cl)cc(C)c32)C1 [Example 325] | 1.55 |  |  | 
53 | C=CC(=O)N1CC(NC(=O)Cn2ccc3cc(Br)c(C)cc32)C1 [Example 186] |  | 26.6 | 4.47 | IC50 [6]: > 250 µM
54 | C=CC(=O)N1CC(NC(=O)Cn2cc(CC(=O)N3CCC(c4ncc[nH]4)CC3)c3cc(Br)ccc32)C1 [Example 327] | 45.9 |  |  | 
55 | C=CC(=O)N1CC(NC(=O)Cn2c(C)c(-c3cnccc3C#N)c3cc(Cl)ccc32)C1 [Example 314] |  |  |  | IC50 [5]: 11.7 µM
56 | C=CC(=O)N1CC(NC(=O)Cn2c3c(c4cc(Br)ccc42)CNCC3)C1 [Example 249] |  | 54.6 | 21.7 | 
57 | C=CC(=O)N1CC(NC(=O)Cn2cc(-c3ccc(F)cc3F)c3cc(-c4ccc(F)cc4F)ccc32)C1 [Example 210] |  | > 250 | 10.9 | 
58 | C=CC(=O)N1CC(NC(=O)Cn2c(C)c(-c3cnccc3C3=CCOCC3)c3cc(Cl)cc(C)c32)C1 [Example 341] | 2.44 |  |  | 
59 | C=CC(=O)N1CC(NC(=O)Cn2c(C)c(C(=O)OC(C)(C)C)c3cc([N+](=O)[O-])ccc32)C1 [Example 278] |  |  |  | IC50 [5]: 105 µM; IC50 [2]: > 250 µM
60 | C=CC(=O)N1CC(NC(=O)Cn2c(C(=O)NCc3ccccc3)c(I)c3cc(Br)ccc32)C1 [Example 192] |  | 107 | 61.7 | 
61 | C=CC(=O)N1CC(N(C)C(=O)Cn2c(C)c(-c3cncnc3C(C)C)c3cc(Cl)cc(C)c32)C1 [Example 339] | 2.88 |  |  | 
62 | C=CC(=O)N1CC(CO)(N(C)C(=O)Cn2ccc3cc(Br)ccc32)C1 [Example 354] | > 250 |  |  | IC50 [2]: > 62.5 µM
63 | C=CC(=O)N1CC(NC(=O)Cn2c(C)c(-c3cnccc3C3=CCCCC3)c3cc(Cl)cc(C)c32)C1 [Example 335] | 0.8 |  |  | 
64 | C=CC(=O)N1CC(NC(=O)Cn2ccc3cc(C(F)(F)F)ccc32)C1 [Example 235] |  | > 250 | 5.45 | 
65 | C=CC(=O)N1CC(NC(=O)Cn2c(C)c(-c3c(OC)cccc3OC)c3cc(Cl)cc(C)c32)C1 [Example 343] | 13.6 |  |  | 
